This is an account of results in US20060105329A1, “Gene panel participating in liver regeneration” (priority 2001, published 2006).

Structures are written as SMILES. Several values for one entry are separate records, joined by “and”; a condition that tells them apart may be missing. Equal values may be shown once.

One assay deals with T1, ATA2 (Rattus norvegicus, UniProt Q9JHE5).
T1 sequence (Q9JHE5 1-504): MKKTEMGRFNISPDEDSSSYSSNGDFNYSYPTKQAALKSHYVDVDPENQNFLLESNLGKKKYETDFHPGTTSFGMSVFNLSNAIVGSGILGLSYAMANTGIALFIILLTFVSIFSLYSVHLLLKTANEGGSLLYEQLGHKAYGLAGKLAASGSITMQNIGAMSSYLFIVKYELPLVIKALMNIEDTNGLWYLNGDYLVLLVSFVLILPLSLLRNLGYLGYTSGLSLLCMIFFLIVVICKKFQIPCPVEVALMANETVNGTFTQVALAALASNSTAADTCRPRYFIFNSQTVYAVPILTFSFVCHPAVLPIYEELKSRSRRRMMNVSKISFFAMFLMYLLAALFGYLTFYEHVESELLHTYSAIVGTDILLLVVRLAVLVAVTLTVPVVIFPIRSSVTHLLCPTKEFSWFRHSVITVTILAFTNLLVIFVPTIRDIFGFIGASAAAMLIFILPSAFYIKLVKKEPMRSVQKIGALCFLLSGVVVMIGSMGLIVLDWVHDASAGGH
To be noted: Ala transport activity of ATA2 inhibited by treatment with MeAIB; Freeman T L et al., Hepatology 1999; cited from earlier work.

The subject of assay [1] is gene No. 117 in the gene panel. As to the kind of experiment: ATAC-PCR gene expression in liver of partially hepatectomized rats administered L-alanine, gene No. 117. It is filed as in vivo, rat. As for the experimental part:
(§1) L-alanine is known to have effect of accelerating liver regeneration (Maezono K et al., Hepatology 24(5), 1996, Effect of Alanine on D-Galactosamine-Induced Acute Liver Failure in Rats; Japanese Patent Laid-open Publication No. 5-229940). Therefore, rats were subjected to partial hepatectomy and orally administered with L-alanine at 18 and 21 hours after the hepatectomy, and then gene expressions at 24 hours after the hepatectomy were examined.
(§2) Five 6 week-old F344 male rats (120 g) were preliminarily fed for 6 days by giving feed CRF-1 (Oriental Yeast) and water and then divided into 2 groups (Group 1 and Group 2) each consisting of rats with the same body weight. At 24 hours before dissection, 70% partial hepatectomy was performed by the method by Higgins-Anderson (Higgins, G M and Anderson, R M, Arch. Pathol. 12, 186-191, 1931). On the day of autopsy, the rats were starved for 6 hours before dissection. […]
(§3) Gene expressions in rat liver in each group were measured by ATAC-PCR. […] In ATAC-PCR, among the genes in the gene panel, 117 types of which expression could be measured by ATAC-PCR using the restriction enzyme MboI were measured (those except for Nos. 12, 49, 52, 55, 58, 59, 61, 69, 73, 77, 83, 90, 93, 101, 102, 108, 130, 134, 135 and 136 mentioned in Table 1).
(§4) Further, the gene expressions in Groups 1 and 2 were measured by ATAC-PCR for the genes of the gene panel and compared. […]

Assay [2] deals with liver nuclear protein p47. As to the kind of experiment: ATAC-PCR gene expression in liver of partially hepatectomized rats administered L-alanine, gene No. 46. The assay is classed as in vivo, rat. As for the experimental part:
as §1, §2, §3, §4

For a further assay, the system named is nuclear RNA helicase. The experiment in a line: ATAC-PCR gene expression in liver of partially hepatectomized rats administered L-alanine, gene No. 36. It is filed as in vivo, rat. As for the experimental part: as §1, §2, §3, §4
The subject of assay [3] is high mobility group protein 2. As to the kind of experiment: ATAC-PCR gene expression in liver of partially hepatectomized rats administered L-alanine, gene No. 17. The assay is classed as in vivo, rat. As for the experimental part: as §1, §2, §3, §4
Assay [4] deals with liver proliferating cell nucleus antigen (PCNA). The experiment in a line: PCNA labeling index in liver of partially hepatectomized rats administered L-alanine. It is filed as in vivo, rat. How it is done: as §1
Five 6 week-old F344 male rats (120 g) were preliminarily fed for 6 days by giving feed CRF-1 (Oriental Yeast) and water and then divided into 2 groups (Group 1 and Group 2) each consisting of rats with the same body weight. At 24 hours before dissection, 70% partial hepatectomy was performed by the method by Higgins-Anderson (Higgins, G M and Anderson, R M, Arch. Pathol. 12, 186-191, 1931). On the day of autopsy, the rats were starved for 6 hours before dissection. At 6 and 3 hours before dissection, 2 g/10 ml/kg of L-alanine was orally administered as an aqueous solution containing 0.3% aqueous carboxymethylcellulose (CMC).
After the rats were killed by bleeding under anesthesia, the dissection was performed. Liver was extracted, weighed, cryopreserved, and then subjected to the mRNA expression measurement by the ATAC-PCR method. Further, liver samples were prepared to measure the liver proliferating cell nucleus antigen (PCNA) levels.
Further, the livers of rats administered with L-alanine were stained by using anti-PCNA antibodies (antibodies directed to proliferating cell nuclear antigen (PCNA), a replication factor that accelerates activity of DNA polymerase ä), and the PCNA labeling index was measured by the method of Tanaka et al. (Tanaka et al., Byori to Rinsho, 9 (6): 791-798, 1991).
Due to the L-alanine administration, the PCNA labeling index in the livers elevated as compared with the livers of the non-administered rats (Table 2). In Table 2, Ala+represents the L-alanine-administered group, and Ala-represents the L-alanine non-administered group. Thus, hepatocytes proliferation accelerating effect due to the L-alanine administration was observed.

For assay [5], the system named is leukemia-associated cytosolic phosphoprotein stathmin. As to the kind of experiment: ATAC-PCR gene expression in liver of partially hepatectomized rats administered L-alanine, gene No. 67. The assay is classed as in vivo, rat. As for the experimental part:
as §1, §2, §3, §4

The next assay deals with liver regeneration. The conditions noted are these: Maezono K et al., Hepatology 24(5), 1996; JP 5-229940; cited from earlier work.
Another assay relates to deoxy-UTPase (dUTPase). The experiment in a line: ATAC-PCR gene expression in liver of partially hepatectomized rats administered L-alanine, gene No. 68. It is filed as in vivo, rat. As for the experimental part: as §1, §2, §3, §4
In assay [6] the test system is amino acid transporter system A (ATA2). As to the kind of experiment: ATAC-PCR gene expression in liver of partially hepatectomized rats administered L-alanine, gene No. 5. The assay is classed as in vivo, rat. As for the experimental part:
as §1, §2, §3, §4

The subject of assay [7] is rat genes involved in L-alanine metabolism. The experiment in a line: Expression analysis of genes involved in L-alanine metabolism by Taqman PCR (SYBR Green) with L-alanine administration during liver regeneration. To be noted: L-alanine 2 g/10 ml/kg BW orally 18 and 21 hr after 70% partial hepatectomy vs 0.3% CMC control, liver at 24 hr, values only in FIGS. 2 to 4. It is filed as in vivo. How it is done: Expression changes were examined with L-alanine administration during liver regeneration regarding 59 types of rat genes involved in L-alanine metabolism extracted in Example 2.
Five 6 week-old F344 male rats (120 g) were fed for 6 days by giving feed CRF-1 (Oriental Yeast) and water and then divided into 2 groups (Group 1 and Group 2) each consisting of rats with the same body weight. At 24 hours before dissection, 70% partial hepatectomy (left lobe and intermediate lobe) was performed by the method of Higgins-Anderson (Higgins, G M and Anderson, R M, Arch. Pathol. 12, 186-191, 1931). On the day of autopsy, the rats were starved for 6 hours before the dissection. At 18 and 21 hours after the partial hepatectomy, 2 g/10 ml/kg BW of L-alanine was orally administered as an aqueous solution containing 0.3% carboxymethylcellulose (Group 1), and only 0.3% carboxymethylcellulose was orally administered as a control (Group 2).
Dissection was performed at 24 hours after the partial hepatectomy. After the rats were killed by bleeding under anesthesia, livers were extracted, weighed, cryopreserved and then subjected to the mRNA expression measurement by the Taqman PCR (SYBR Green) method. […]
All the Taqman PCR (SYBR Green) reactions were performed in duplicate, and the cycle threshold (CT) was calculated. […]

[8] abbreviates: ATAC-PCR, liver 24 hr after hepatectomy, L-alanine-administered vs non-administered group.
[9] abbreviates: liver 24 hr after hepatectomy with L-alanine, ratio to gene panel expression at 0 hour.
The mark [10] stands for this setting: individual rats 2-1, 2-2 (Group 2, taken as Ala+), L-alanine 2 g/10 ml/kg orally 18 and 21 hr after 70% partial hepatectomy, liver at 24 hr.

On to `CNC(C)(C)C(=O)O` [MeAIB, alpha-(methylamino)isobutyric acid], for which, on ATA2, the “uptake of [3H]thymidine into DNA” value is listed as “decreased”.
As for `C[C@H](N)C(=O)O` [L-alanine], the “Ala+, 24 hr/Ala-, 24 hr expression ratio, gene No. 117” value in assay [1] (setting [8]) amounted to 3.2. Moreover, the “Ala+ 24 hr relative expression value based on expression before hepatectomy, gene No. 117” value in assay [1] (setting [9]) stood at 0.6. For the same compound, in assay [2] (setting [8]), the “Ala+, 24 hr/Ala-, 24 hr expression ratio, gene No. 46” value was found to be 4.4. In addition, the “Ala+ 24 hr relative expression value based on expression before hepatectomy, gene No. 46” value in assay [2] (setting [9]) came to 11.4. For the same compound, the “Ala+, 24 hr/Ala-, 24 hr expression ratio, gene No. 36” value in the assay on nuclear RNA helicase (setting [8]) stood at 4.6. Moreover, the “Ala+ 24 hr relative expression value based on expression before hepatectomy, gene No. 36” value with nuclear RNA helicase (setting [9]) turned out to be 25.8. Also, the “Ala+, 24 hr/Ala-, 24 hr expression ratio, gene No. 17” value in assay [3] (setting [8]) is recorded as 5.5. In assay [3] (setting [9]), the “Ala+ 24 hr relative expression value based on expression before hepatectomy, gene No. 17” value is on record as 228.3. In addition, the “PCNA labeling index in the livers as compared with non-administered rats” value in [4] (L-alanine orally 18 and 21 hr after partial hepatectomy, liver at 24 hr) is recorded as “elevated”. Moreover, the “PCNA Labeling Index (%), Mean” value in assay [4] (group mean of rats 2-1, 2-2 (taken as Ala+), non-administered group mean 0.6%, liver 24 hr after hepatectomy) was 64.7%. In addition, in assay [4] (setting [10]), the “PCNA Labeling Index (%)” value was 65.5% and 64.0%; the “PCNA Negative cells” value is 247 and 240; the PCNA positive cells is 468 and 426. The “Ala+, 24 hr/Ala-, 24 hr expression ratio, gene No. 67” value in assay [5] (setting [8]) is 4.2. Also, in assay [5] (setting [9]), the “Ala+ 24 hr relative expression value based on expression before hepatectomy, gene No. 67” value was found to be 25.6. The “effect on liver regeneration” value in the assay with liver regeneration was “accelerate liver regeneration”. Moreover, the “Ala+, 24 hr/Ala-, 24 hr expression ratio, gene No. 68” value with deoxy-UTPase (dUTPase) (setting [8]) stood at 3.5. For the same compound, in the assay with deoxy-UTPase (dUTPase) (setting [9]), the “Ala+ 24 hr relative expression value based on expression before hepatectomy, gene No. 68” value was determined as 24.9. In addition, the “Ala+, 24 hr/Ala-, 24 hr expression ratio, gene No. 5” value in assay [6] (24 h) is 4.8. The “Ala+ 24 hr relative expression value based on expression before hepatectomy, gene No. 5” value in [6] (setting [9]) worked out at 4.8. In assay [7], the “Expression level of genes involved in L-alanine metabolism (genes of Table 7 and Nos. 139, 140, 151)” value is on record as “changes in expression level due to the L-alanine administration were observed”.
